Laboratory results published in patent US11530458B2, “Methods of using multi-ligand metal complexes to perform oxidative catalytic pretreatment of lignocellulosic biomass” (Board of Trustees of Michigan State University, priority 2014, dated 2022).

Columns and labels:
[1] = Catalyst screening with multi-ligand metal complexes: enzymatic digestibility of hybrid poplar after AOP pretreatment; set-up: species or system Populus nigra var. charkoviensis×caudina cv. NE-19; details: FIG. 1
Method: Metal complexes (hereinafter “metal catalysts”) containing multiple or single metal coordinating ligands were tested. The metal catalysts tested included copper catalysts having a second metal coordinating ligand substituted for at least a portion of the 2,2′-bipyridine. These catalysts were evaluated for their performance in further enhancing the efficacy of AOP pretreatment of hybrid poplar. Ligands involved in the screening included histidine, glycine, di(2-picolyl)amine (dipica, 97%), 1,4,7-triazacyclononane (TACN, 95%), 2,2′;6′,2″-terpyridine (Terpy, 98%), 1,10-phenanthroline (phen, ≥99%), and tris(2-pyridylmethyl)amine (TPA, 98%, obtained from Sigma-Aldrich and Acros Organics/0). An iron 2,2′-bipyridine complex was prepared by mixing ferrous sulfate heptahydrate with 2,2′-bipyridine in an aqueous solution, and this iron complex was also tested.
The hybrid poplar (Populus nigra var. charkoviensis×caudina cv. NE-19) used in this testing was grown at the University of Wisconsin Arlington Agricultural Research Station. The hybrid poplar was harvested in 2011 and debarked using methods known in the art at the University of Wisconsin, Madison to produce heartwood and sap wood (different parts of the wood stem which can be differentiated via chemical testing). […]

[2] = Metal-catalyzed AOP pretreatment of chelated woody biomass, then enzymatic hydrolysis; details: [metal]:[bpy]=2 mM:4 mM; versus Mn-AOP and Fe-AOP; FIG. 30
Method: Three different pretreatment strategies were tested on each of the biomass samples: alkali only, alkaline hydrogen peroxide (AOP), and copper-catalyzed AOP (Cu-AOP). In all cases, 0.51 g of biomass (approximately 0.5 g dry basis; about 3 to about 5% moisture content) was pretreated in a total of 5.0 mL aqueous solution (10% solids loading). For alkali-only pretreatment, the solution contained 50 mg NaOH (100 mg NaOH/g biomass), while AOP pretreatment also contained 150 μL of 30% H2O2 (100 mg H2O2/g biomass). […]
Following pretreatment, 0.5 mL of 1 M citric acid buffer (pH 4.8) was added to the pretreated slurry, and the slurry was slowly titrated with 72% (w/w) H2SO4 to adjust the pH to 5.0 prior to enzymatic hydrolysis. […] The protein concentrations of the stock enzyme cocktails were quantified as y described in X. Gao, R. Kumar, S. Singh, B. A. Simmons, V. Balan, B. E. Dale and C. […]
Following enzymatic hydrolysis, the solid and liquid phases were separated by centrifugation, and the amount of glucose and xylose released into the aqueous phase was quantified by HPLC (Agilent 1260 Series equipped with an Aminex® HPX-87H column operating at 65° C., a mobile phase of 0.05 M H2SO4, a flow rate of 0.6 mL/min, and detection using an Agilent 1260 infinity refractive index detector). […]

[3] = Catalytic AOP pretreatment of alkali-extracted switchgrass, then enzymatic hydrolysis (glucose yield); set-up: species or system Panicum virgatum; details: for Glucose yield of enzymatic hydrolysis (% of theoretical maximum): 24 hr AOP pretreatment of AESG, catalyst concentration per table
Method: Screening of various metal ligand complexes (hereinafter “catalysts”) was performed via catalytic alkaline oxidative pretreatment (AOP) pretreatment of alkali-extracted switchgrass (AESG). To prepare AESG, 80 grams of untreated switchgrass (Panicum virgatum, cv. Cave-In-Rock, hammer milled to pass a 5-mm screen, and stored at a moisture content of approximately 5%) was soaked in an aqueous solution of 5 g/L NaOH at 80° C. for 2 hrs. The weight-to-volume (w/v) solids loading of switchgrass during alkaline extraction was 10% (e.g., 10 g of biomass in 100 mL NaOH solution). […] The washed solids was recovered as AESG and air-dried for over 7 days.
[Al(III)(3,5-^tBu2-salophen)Cl] [3,5-^tBu2-salophen=N,N′-bis(3,5-di-tert-butylsalicylidene)-1,2-phenylenediamine], [Zn(II)(BPPA)Cl]Cl [BPPA=N,N-bis(6-pivaloylamido-2-pyridylmethyl)-N-(2-pyridylmethyl)amine], and [NEt4][Fe(III)(bpb)Cl2]
To study the effect of catalytic AOP pretreatment on AESG, pretreatment was performed in a 100 g/L aqueous suspension of AESG in the presence of each catalyst. […] After 24 hrs of incubation at 30° C. without mixing, the pretreated switchgrass slurry was washed using deionized water to remove the alkaline phosphate buffer.
The enzymatic digestibility of AOP-pretreated switchgrass was estimated by the yield of glucose during the enzymatic hydrolysis of AOP pretreated AESG. The percentage yield was calculated on the basis of the glucan content in AESG prior to catalytic AOP pretreatment.
For enzymatic hydrolysis, 500 μL of 1 M Na-citrate buffer (pH 5) and 40 μL of 10 mM tetracycline (Sigma-Aldrich) were added to AOP-AESG that was not dried after catalytic AOP pretreatment. Accellerase 1500 (42 FPU/mL; Danisco-Genencor, Palo Alto, Calif.) was added at 50 mg protein per gram of glucan in AESG. The total volume of the mixture (solid and liquid) was adjusted with deionized water to reach a 5% (w/v) solids concentration, and the samples were incubated at 50° C. during hydrolysis.

Substance: copper(II) 2,2′-bipyridine complex [Cu(bpy), L/M = 3:1]
- Performance in enhancing AOP pretreatment of hybrid poplar (enzymatic digestibility) [1]: superior performance among all candidates
- Enzymatic digestibility after metal-catalyzed AOP [2]: significantly higher enzymatic digestibility than the addition of either Mn(bpy) or Fe(bpy) complexes
- Glucose yield of enzymatic hydrolysis (% of theoretical maximum) ([3]; pH 10, 24 hrs hydrolysis): 38.67 ± 0.3 % of theoretical maximum
- Glucose yield of enzymatic hydrolysis (% of theoretical maximum) ([3]; pH 10, 72 hrs hydrolysis): 42.98 ± 0.88 % of theoretical maximum
- Glucose yield of enzymatic hydrolysis (% of theoretical maximum) ([3]; pH 11, 24 hrs hydrolysis): 41.65 ± 0.14 % of theoretical maximum
- Glucose yield of enzymatic hydrolysis (% of theoretical maximum) ([3]; pH 11, 72 hrs hydrolysis): 44.97 ± 0.42 % of theoretical maximum
- Improvement in enzymatic digestibility of AOP pretreated AESG ([3]; pH 11.5, versus no catalyst): very moderate improvement
- Glucose yield of enzymatic hydrolysis (% of theoretical maximum) ([3]; pH 13, 24 hrs hydrolysis): 41.56 ± 0.06 % of theoretical maximum
